In patent US6376511B2, “8-aminoquinolines” (The University of Mississippi, priority 1999, dated 2002):
Like-named read-outs stand apart in the source and are kept apart here.

Key:
[1] = tested on: L. donovani Chagasi PP75; assay: In vitro anti-Leishmania activity, Giemsa counts; format: cell-based; settings: control 6.35
[2] = tested on: Pneumocystis carinii; assay: Anti-Pneumocystis carinii test (induced Pneumocystis carinii infection in immunosuppressed mice), oral; format: in vivo; settings: mice
[3] = tested on: P. cynomolgi; settings: rhesus monkey, cited from earlier work
[4] = tested on: P. carinii; assay: In vitro antipneumocystis activity; format: cell-based; settings: Pneumocystis carinii, 168 h, read-out: % of control on day 7
[5] = tested on: L. mexicana amazonensis; assay: In vitro anti-Leishmania activity, Giemsa counts; format: cell-based; settings: 10 μg/mL; control 15.10 ± 2.18
[6] = tested on: Toxoplasma gondii; assay: In vitro evaluation against Toxoplasma gondii; format: cell-based; settings: preliminary evaluation
[7] = tested on: Plasmodium berghei KBG-173; assay: Prophylactic test, Plasmodium berghei infection in mice, oral; format: in vivo; settings: for Mice surviving day 60/Mice infected and treated: single dose of 2 mg/kg
Description: CD-I male or female mice, 5 weeks of age, were infected with 5×10^4 parasitized erythrocytes ot Plasmodium berghei KBG-173 mm strain. Blood films were taken on day +6 and weekly thereafter until day+30. […]

[8] = tested on: Leishmania; assay: In vitro activity against a variety of strains of Leishmania; format: cell-based
[9] = tested on: trypanosome isolate KETRI 243As103; assay: Antitrypanosomal activity, trypanosome isolates grown as blood forms in HMI-18; format: cell-based, Trypanosoma; settings: Trypanosoma, 48 h
Protocol: (§1) Compounds were tested vs. trypanosome isolates grown as blood forms in HMI-18 (Hirumi H., Hirumi, K. 1989. Continuous Cuitivation of Trypanosoma brucei bloodstream forms in a medium containing a low concentration of serum portein without feeder cell layers. J. Parasitol. 75:985-989) containing 20% horse serum.

[10] = tested on: trypanosome isolate KETRI 269; assay: as above; format: cell-based, Trypanosoma; settings: Trypanosoma, 48 h
Protocol: as §1

[11] = tested on: trypanosome isolate KETRI 243; assay: as above; format: cell-based, Trypanosoma; settings: Trypanosoma, 48 h
Protocol: as §1

[12] = tested on: trypanosome isolate EATRO Lab 110; assay: as above; format: cell-based, Trypanosoma; settings: Trypanosoma, 48 h
Protocol: as §1

[13] = tested on: Plasmodium berghei KBG-173; format: in vivo; settings: for Parasitemia Day 6: percentage of red blood cells with parasites, control 31.8
Protocol: Blood Schizontocidal Test (Trophozoite-Induced Plasmodium berghei Infection in mice University of Miami, Test System: Thompson Test
Drugs were mixed in 0.5% hydroxycellulose 0.1% Tween 80 and administered orally b.i.d. on days 3, 4 and 5 postinfection. CD-1 male or female mice, 5 weeks of age, were infected with 5×10^4 parasitized erythrocytes of Plasmodium berghei KBG-173 mm strain. Blood films were taken on day +6 and weekly thereafter until day +60. Parasitemias were calculated and SD90 value (dose suppressing 90% of the parasites in treated groups compared with the infected non-treated controls) on day +6 postinfection. Mortality data was tabulated for 60 days at which time all mice surviving that were blood film negative were considered cured.
[…] The activity of these compounds were compared with the untreated control and “racemate” which is a mixture of equal amount of each enantiomer X and Y. In untreated controls, death occurs within 8-9 days. Compounds which are effective against Plasmodium berghei infection increase the mean survival time of the infected animals when compared with the untreated controls. Mice that survive after thirty days and are free of parasites in blood are considered cured.
Efficacy of the drug is determined by the number of cures at the end of a 30 day period and the increase in mean survival time over the control (ΔMST). The effect of the test drugs also could be determined by the reduction of the parasitemia (percentage of the red blood cells detected with the parasites) over the untreated control on day 6, one day after the treatment is completed. Both these methods yield virtually identical results. If the dose of test compounds are inadequate, after initial clearance, residual parasites will multiply and relapses will occur within thirty days. The blood schizontocidal activities (suppressive antimalarial) of X, Y, and racemate against P. berghei in mice are shown in Table 11.

[14] = tested on: P. berghei; settings: single dose 72 h after infection, cited from earlier work
[15] = oral 1.3 mg/kg/day (x21), mean score on 0 to 5+ scale
[16] = 0.25 mg/kg/day, 0.75 mg/kg total

## COc1cc(NC(C)CCCN)c2nccc(C)c2c1Oc1ccc(Cl)c(Cl)c1 (racemic) [DN3-27-1, 8-[(4-amino-1-methylbutyl)amino]-5-(3,4-dichlorophenoxy)-6-methoxy-4-methylquinoline]
[1]; 50 ng/mL
  Giemsa Counts: 0.95 ± 0.27
[1]; 150 ng/mL
  Giemsa Counts: 0.10 ± 0.03
[1]; 450 ng/mL
  Giemsa Counts: 0.00 ± 0.00
[2]; oral 0.25 mg/kg/day (x21)
  Giemsa Stain I/T (animals with organism after treatment/animals treated): 2/10
[2]; oral 1.3 mg/kg/day (x21)
  Giemsa Stain I/T (animals with organism after treatment/animals treated): 0/10
  Silver stain I/T (animals with organism after treatment/animals treated): 0/10
[2]; [15]
  Giemsa Stain Score: 0.0
  Silver stain Score: 0.0
[3]; 0.1 mg/kg/day x7, orally
  Monkeys infected and treated/cured: 0/3
[3]; 0.316 mg/kg/day x7, orally
  Monkeys infected and treated/cured: 1/2
[3]; 1.0 mg/kg/day x7, orally
  Monkeys infected and treated/cured: 3/3
[4]; concentration 0.1 μg/ml
  activity at 0.1 µg/mL: 76.7%
[4]; concentration 1.0 μg/ml
  activity at 1 µg/mL: 40.5%
[4]; concentration 10 μg/ml
  activity at 10 µg/mL: 3.2%
[5]
  Giemsa Counts: 1.30 ± 0.38
[6]
  activity in vitro against Toxoplasma gondii (concentration): around 50 μM
[7]; day of treatment 1, dose 2 mg/kg
  Mice infected and Mice/treated surviving day 60: 5/5
[7]; day of treatment 1, dose 8 mg/kg
  Mice infected and Mice/treated surviving day 60: 5/5
[7]; day of treatment 1, dose 32 mg/kg
  Mice infected and Mice/treated surviving day 60: 5/5
[7]; day of treatment 1, dose 128 mg/kg
  Mice infected and Mice/treated surviving day 60: 5/5
[7]; day of treatment 2, dose 2 mg/kg
  Mice infected and Mice/treated surviving day 60: 5/5
[7]; day of treatment 2, dose 8 mg/kg
  Mice infected and Mice/treated surviving day 60: 5/5
[7]; day of treatment 2, dose 32 mg/kg
  Mice infected and Mice/treated surviving day 60: 5/5
[7]; day of treatment 2, dose 128 mg/kg
  Mice infected and Mice/treated surviving day 60: 5/5
[7]; day of treatment -1, dose 2 mg/kg
  Mice infected and Mice/treated surviving day 60: 5/5
[7]; day of treatment -1, dose 8 mg/kg
  Mice infected and Mice/treated surviving day 60: 5/5
[7]; day of treatment -1, dose 32 mg/kg
  Mice infected and Mice/treated surviving day 60: 5/5
[7]; day of treatment -1, dose 128 mg/kg
  Mice infected and Mice/treated surviving day 60: 5/5
[7]; day of treatment -2, dose 2 mg/kg
  Mice infected and Mice/treated surviving day 60: 5/5
[7]; day of treatment -2, dose 8 mg/kg
  Mice infected and Mice/treated surviving day 60: 5/5
[7]; day of treatment -2, dose 32 mg/kg
  Mice infected and Mice/treated surviving day 60: 5/5
[7]; day of treatment -2, dose 128 mg/kg
  Mice infected and Mice/treated surviving day 60: 5/5
[7]; day of treatment -3, dose 2 mg/kg
  Mice infected and Mice/treated surviving day 60: 0/5
[7]; day of treatment -3, dose 8 mg/kg
  Mice infected and Mice/treated surviving day 60: 5/5
[7]; day of treatment -3, dose 32 mg/kg
  Mice infected and Mice/treated surviving day 60: 5/5
[7]; day of treatment -3, dose 128 mg/kg
  Mice infected and Mice/treated surviving day 60: 5/5
[7]; single dose of 2 mg/kg within 2 days preinfection through 2 days post infection, mice
  protection from malaria: completely protected from malaria
[7]; day of treatment 2 (Table 5)
  Mice surviving day 60/Mice infected and treated: 2/5
[7]; day of treatment -2 (Table 5)
  Mice surviving day 60/Mice infected and treated: 0/5
[7]; day of treatment -3 (Table 5)
  Mice surviving day 60/Mice infected and treated: 0/5
[7]; day of treatment -4 (Table 5)
  Mice surviving day 60/Mice infected and treated: 0/5
[7]; day of treatment -5 (Table 5)
  Mice surviving day 60/Mice infected and treated: 0/5
[8]
  in vitro activity against a variety of strains of Leishmania: in vitro activity at very low concentrations
[9]
  IC50: 10.9 µM
[10]
  IC50: 5 µM
[11]
  IC50: 29 µM
[12]
  IC50: 9.4 µM
[13]; [16]
  Mice Alive Day 26: 0/5
  ΔMST (increase in mean survival time over the control): 11.6 days
  Parasitemia Day 6: 4.8
[13]; 1 mg/kg/day, 3 mg/kg total
  Mice Alive Day 26: 0/5
  ΔMST (increase in mean survival time over the control): 10.2 days
  Parasitemia Day 6: 0.1
[13]; highest dose tested (Table I)
  toxicity in mice: no mice showed toxicity at the highest dose tested
[13]; oral dose 1 mg/kg/day (total dose 3 mg/kg), P. berghei in mice
  Mice surviving 60 days/Mice infected and treated: 7/7
[13]; oral dose 4 mg/kg/day (total dose 12 mg/kg), P. berghei in mice
  Mice surviving 60 days/Mice infected and treated: 7/7
[13]; oral dose 16 mg/kg/day (total dose 48 mg/kg), P. berghei in mice
  Mice surviving 60 days/Mice infected and treated: 7/7
[13]; oral dose 64 mg/kg/day (total dose 192 mg/kg), P. berghei in mice
  Mice surviving 60 days/Mice infected and treated: 7/7
[13]; oral, P. berghei in mice
  blood schizonticidal activity, comparison among compounds of Table I: the most active
[14]; 5 mg/kg subcutaneously
  Mice infected and treated/Mice surviving 60 days: 5/4
[14]; 10 mg/kg subcutaneously
  Mice infected and treated/Mice surviving 60 days: 5/5
[14]; 20 mg/kg subcutaneously
  Mice infected and treated/Mice surviving 60 days: 5/5
[14]; 40 mg/kg subcutaneously
  Mice infected and treated/Mice surviving 60 days: 5/5
[14]; 80 mg/kg subcutaneously
  Mice infected and treated/Mice surviving 60 days: 5/5
[14]; 160 mg/kg subcutaneously
  Mice infected and treated/Mice surviving 60 days: 5/5
[14]; 320 mg/kg subcutaneously
  Mice infected and treated/Mice surviving 60 days: 5/5
[14]; 640 mg/kg subcutaneously
  Mice infected and treated/Mice surviving 60 days: 5/5
